Data taken from ChEMBL document CHEMBL3132805, “Synthesis of new 13-diphenylalkyl analogues of berberine and elucidation of their base pair specificity and energetics of DNA binding” (Medchemcomm, 2014).
Calls of active or inactive are those of the source. No cut-off for these calls is given here.

Columns and labels:
[1] = Binding affinity to duplex DNA (unknown origin) assessed as change in melting temperature
DNA = assay: Binding affinity to calf thymus DNA in CP buffer at pH 7.0 at 3 to 24 uM by CD spectroscopy; format: nucleic-acid assay; conditions: Bos taurus
[2] = Binding affinity to poly(dG-dC).poly(dG-dC) DNA (unknown origin) in CP buffer at pH 7.0 at 3 to 24 uM by CD spectroscopy
[3] = Binding affinity to poly(dA-dT).poly(dA-dT) DNA (unknown origin) in CP buffer at pH 7.0 at 3 to 24 uM by CD spectroscopy

ΔTm [1] [°C]	Compound	Activity (DNA)	Activity [2]	Activity [3]
13	COc1ccc2cc3[n+](cc2c1OC)CCc1cc2c(cc1-3)OCO2			
7	COc1ccc2c(CC(c3ccccc3)c3ccccc3)c3[n+](cc2c1OC)CCc1cc2c(cc1-3)OCO2	Active	Active	Active
16	COc1ccc2c(CCC(c3ccccc3)c3ccccc3)c3[n+](cc2c1OC)CCc1cc2c(cc1-3)OCO2	Active	Active	Active
17	COc1ccc2c(CCCCC(c3ccccc3)c3ccccc3)c3[n+](cc2c1OC)CCc1cc2c(cc1-3)OCO2	Active	Active	Active

Compound	ΔTm [1] [°C]	Activity (DNA)	Activity [2]	Activity [3]
COc1ccc2c(CCCCCC(c3ccccc3)c3ccccc3)c3[n+](cc2c1OC)CCc1cc2c(cc1-3)OCO2	16.6	Active	Active	Active
COc1ccc2c(CCCC(c3ccccc3)c3ccccc3)c3[n+](cc2c1OC)CCc1cc2c(cc1-3)OCO2	19	Active	Active	Active
COc1ccc2c(C(c3ccccc3)c3ccccc3)c3[n+](cc2c1OC)CCc1cc2c(cc1-3)OCO2	6	Active	Active	Active
